Values after ≈ are worked out from the molar mass of the structure shown.
Columns and labels:
[1] = parameters: method as in PMID 23733467; details: MDR-TB patients; ref [14]; cited from earlier work
VERO cells = test: Cytotoxicity against mammalian cells (VERO), 72 h assay; type: cell-based; details: Chlorocebus sabaeus, cytotoxicity toward VERO cells
M. tb (strain H37Rv) [2] = test system: M. tb (strain H37Rv); parameters: method as in PMID 25781074; details: aerobic, growth inhibition ≥90%, ref [15]; cited from earlier work
M. tb (strain H37Rv) [3] = test system: M. tb (strain H37Rv); parameters: method as in PMID 25781074; details: hypoxic, growth inhibition ≥90%, ref [15]; cited from earlier work
M. tb (strain H37Rv) [4] = test: MABA, MIC against M. tb under aerobic conditions; type: cell-based, Mycobacterium tuberculosis
M. tb (strain H37Rv) [5] = test: LORA, MIC against M. tb under hypoxic conditions (nonreplicating persistent bacteria); type: cell-based, Mycobacterium tuberculosis; details: vs 4 and 3
M. tb [6] = test system: M. tb; parameters: method as in PMID 19209889; details: ref [22]; cited from earlier work
M. tb [7] = test system: M. tb; parameters: method as in PMID 19209889; details: ref [22]; cited from earlier work; remark: listed apart in the source
[8] = test system: Mycobacterium tuberculosis (M. tb); parameters: method as in PMID 19209889; details: vs 4; ref [22]; cited from earlier work

Structure (SMILES): Cc1ncc([N+](=O)[O-])n1CCO [MET, metronidazole]
- neurotoxicity in long-term use [1]: too neurotoxic for long-term use

Structure (SMILES): O=[N+]([O-])c1cn2c(n1)OC[C@@H](OCc1ccc(OC(F)(F)F)cc1)C2 [compound 4, pretomanid]
- IC50 (VERO cells): > 128 µM
- MIC MABA (M. tb (strain H37Rv) [2]): 0.50 ± 0.30 µM (≈ 0.18 µg/mL)
- MIC LORA (M. tb (strain H37Rv) [3]): 2.6 ± 1.4 µM (≈ 0.934 µg/mL)

Structure (SMILES): O=[N+]([O-])c1cnc2n1C[C@H](OCc1ccc(OC(F)(F)F)cc1)CO2 [compound 8]
- loss in activity in comparison to its 2-nitro isomer, 4 (M. tb (strain H37Rv) [4]; M. tb MIC vs 4): > 256 fold

Structure (SMILES): Cc1cc(CO[C@@H]2COc3nc([N+](=O)[O-])cn3C2)ccc1OC(F)(F)F [compound 9]
- more active than both 4 and moxifloxacin (6) in MABA (M. tb (strain H37Rv) [4]; MABA, vs 4 and 6): seven- to eight-fold
- more potent than pretomanid in the aerobic assay (M. tb (strain H37Rv) [4]; MABA, vs pretomanid): eight-fold
- better than both 4 and linezolid (3) in LORA (M. tb (strain H37Rv) [5]): about three-fold

Structure (SMILES): O=[N+]([O-])c1cn2c(n1)O[C@H](COCc1ccc(OC(F)(F)F)cc1)C2 [compound 20]
- aerobic MIC99 (M. tb [6]): 4 to 8 µM
- anaerobic MIC90 (M. tb [7]): 31 µM
- less active than 4 [8]: 5- to 10 fold

Reference: publication PMC5733301, “Antitubercular Nitroimidazoles Revisited: Synthesis and Activity of the Authentic 3-Nitro Isomer of Pretomanid” (ACS Medicinal Chemistry Letters, 2017)
